Results as given in patent publication US20240246960A1 (adMare Therapeutics Society, priority 2021, published 2024).
Like-named read-outs stand apart in the source and are kept apart here.

Legend:
[1] = target: T1, pDNA-PK ser2056 induction in FaDU spheroids (Homo sapiens, UniProt P78527); assay: Multicellular tumour spheroid + radiation, pDNA-PK inhibition, FaDU; format: cell-based; details: 20 Gy
T1 construct: host or cells: FaDu
How it was run: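 HCT116 or FaDU spheroids (~0.5 mm) in MEM/10% FBS/10 mM glucose, 20% O2, 5% CO2, 37 °C, stirred, irradiated with 20 Gy alongside compound serially diluted from 10 μM to 3.5 nM. Cryosections taken 2 h post-radiation, immunostained for pDNA-PK ser2056; EC50 is concentration halving pDNA-PK induction. Survival endpoint: 8 Gy, dissociation at 3 h, colony formation.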

[2] = Hepatocyte stability assay, mouse hepatocytes; format: in vitro ADME
How it was run: (§1)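 Pooled cryopreserved hepatocytes (male CD-1 mouse, or mixed-gender human donors; ≥10 each) at 0.7 million viable cells/mL in Krebs-Henseleit buffer pH 7.3, with 1 uM compound (≤0.01% DMSO). Incubated up to 2 h at 37 °C/5% CO2, quenched with acetonitrile; parent compound followed by HPLC-MS/MS peak area.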

[3] = Hepatocyte stability assay, human hepatocytes; format: in vitro ADME
How it was run: as §1

DNA-PK = target: T2, DNA-PK (Homo sapiens, UniProt P78527); assay: DNA-PK Assay for Biochemical Enzymatic Inhibition (ADP Glo Kinase assay); details: Table 1
T2 construct: purchased Invitrogen PR9107A
How it was run: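 Human DNA-PK (25 ng) preincubated 15 min with compounds (ten three-fold dilutions) in HEPES pH 7.5, MgCl2, KCl, calf thymus DNA buffer, then substrate 434.4 μM and ATP 64.4 μM (final) for 60 min at room temperature. ADP-Glo luminescence; percent inhibition fitted by four-parameter regression for IC50.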

HCT116 spheroids = assay: Spheroid + radiation colony forming cell survival assay (SF), HCT116; format: cell-based; details: 8 Gy
Experimental: Multicellular tumour spheroids determination of compound inhibition of pDNA-PK induction following radiation. Tumour spheroids were grown to approximately 0.5 mm in diameter and irradiated with 20 Gy in combination with inhibitor test compounds to determine their potency. Inhibitor concentration for 50% reduction in pDNA-PK induction (IC50) was determined via immunohistochemical staining in spheroid cryosections taken 2 hours following radiation. For cell survival endpoint 8 Gy radiation was used and 3 hours following radiation spheroids were dissociated, counted and plated for colony forming endpoint.
Spheroid+radiation colony forming cell survival assay (SF). Radiation 8 Gy. Drug: serial dilution 5 μM down to 10 nM (12 wells×2 repeat). Spheroids: 5-10 spheroids per well ([…]). HCT116. 5% O2 and 5% CO2. 96 well pate format for assay. Protocol: pre incubate 1 hour with drug, irradiate 8 Gy, post incubate 3 hrs with drug, dissociate spheroids and count cells and plate for colony forming assay. Endpoint: wait 4-7 days and count colonies. Analysis: determine EC50 concentration that increase cell kill by 50% over radiation alone.
Multicellular tumour spheroids were used to determine potency of test compounds in a 3D tissue environment using inhibition of pDNA-PK induction following radiation or cell survival as the endpoint. For the pDNA-PK endpoint HCT116 or FaDU tumour spheroids were grown to approximately 0.5 mm in diameter and irradiated with 20 Gy in combination with inhibitor test compounds to determine their potency. Experiments were carried out in 96 well plates containing 0.7 mls of MEM media containing 10% FBS and 10 mM glucose under 20% O2 & 5% CO2 at 37° C. Following dilution of compounds 1:1000 from DMSO stocks, compounds were serially diluted from 10 μM down to 3.5 nM and 5-10 spheroids added. 96 well plates were constantly stirred to avoid spheroids settling during the course of the experiment. The inhibitor concentration for 50% reduction in pDNA-PK induction (EC50) was determined via immunohistochemical staining in spheroid cryosections taken 2 hours following radiation using anti-pDNA-PK (ser 2056) and fixed immediately in formalin following sectioning. For cell survival endpoint 8 Gy radiation was used and, 3 hours following radiation, spheroids were dissociated, counted and plated for colony forming endpoint. Data presented in the table compound potency as EC50 [μM].

[4] = Microsomal stability assay, human liver microsomes; format: in vitro ADME
Experimental: Samples were then mixed and centrifuged. Supernatants were used for HPLC-MS/MS analysis. […] Peak areas corresponding to the test compound were recorded.

[5] = Microsomal stability assay, mouse liver microsomes

- EC50 ([1]; Example 8, spheroid, read-out: Cell line: FaDU Immunohistochemical endpoint pDNA-PK inhibition EC50): 0.01 to 0.5 µM
- EC50 ([1]; Example 9 Study 2, 20% O2, read-out: Spheroid Cell line: FaDU Immunohistochemical endpoint pDNA-PK inhibition EC50): 0.01 to 0.5 µM
- Hepatocyte Stability (mouse) % rem. 120 min ([2]; 120 min): G (% remaining = 50-75%)
- hepatocyte CLint at 1 uM ([2]; male, CD-1, mouse, cryopreserved hepatocytes, pH 7.3, 0.7 million cells per mL, 1 uM compound): < 8.2 µL/min/1e6 cells
- Hepatocyte Stability (human) % rem. 120 min ([3]; 120 min): H (% remaining = 75-100%)
- hepatocyte CLint at 1 uM ([3]; both sexes, human, cryopreserved hepatocytes, pH 7.3, 0.7 million cells per mL, 1 uM compound): < 8.2 µL/min/1e6 cells
- IC50 (DNA-PK): < 0.0005 µM
- Microsomal Stability (human) % rem. 60 min ([4]; 60 min): H (% remaining = 75-100%)
- microsomal CLint at 0.1 uM ([4]; both sexes, human, liver microsomes, pH 7.4, 0.1 mg/mL microsomes, 0.1 uM compound): < 116 µL/min/mg
- Microsomal Stability (mouse) % rem. 60 min ([5]; 60 min): G (% remaining = 50-75%)
- microsomal CLint at 0.1 uM ([5]; male, CD-1, mouse, liver microsomes, pH 7.4, Microsomal Stability Mouse Clint, 0.1 mg/mL microsomes, 0.1 uM compound): < 116 µL/min/mg
Structure (SMILES): O=C(N[C@H]1CC[C@@H](Oc2nc(N3CCOCC3)cc3ncccc23)CC1)c1ncccn1 [Compound 123, N-((1s,4s)-4-((7-Morpholino-1,6-naphthyridin-5-yl)oxy)cyclohexyl)pyrimidine-2-carboxamide]
- EC50 (HCT116 spheroids; Example 8, spheroid, read-out: Cell line: HCT116 Colony forming endpoint Surviving Fraction EC50): 0.01 to 0.5 µM
- EC50 (HCT116 spheroids; Example 9 Study 2, read-out: Spheroid Cell line: HCT116 Colony forming endpoint Surviving Fraction EC50): 0.01 to 0.5 µM
